Measured values from PubChem BioAssay AID248 (DTP/NCI, 2004).
Values joined by “and” are separate entries in the source; they are usually repeats but may differ in a detail not shown here. Identical values can stand only once. Toxic doses and inconclusive results are not listed. Rule as the data show it: active = T/C of 150% or more; inactive = T/C below 125%.

Tested on: L1210 leukemia ip in BDF1 mice, survival T/C
Assay: NCI In Vivo Anticancer Drug Screen. Data for tumor model L1210 Leukemia (intraperitoneal) in B6D2F1 (BDF1) mice
Details: endpoint: mean survival time, higher = longer survival
Procedure, shortened: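 Mice bearing the transplanted tumor received compound or vehicle. Survival of the treated group was divided by that of the vehicle-treated control group to give the ratio.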

[1] = dose: 100.0 mg/kg/injection, schedule: Q04DX003 (ip), vehicle: saline with Tween-80

Measured: T/C

CNC(=O)NC1CC(OC2CC(O)(C(C)=O)Cc3c(O)c4c(c(O)c32)C(=O)c2c(OC)cccc2C4=O)OC(C)C1O (stereo not given)
inactive: dose: 2.0 mg/kg/injection, schedule: Q04DX003 (ip), vehicle: water 103 % of control | dose: 3.12 mg/kg/injection, schedule: Q01DX009 (ip), vehicle: saline with Tween-80 108 % of control | dose: 4.0 mg/kg/injection, schedule: Q04DX003 (ip), vehicle: water 98 % of control | dose: 6.25 mg/kg/injection, schedule: Q01DX009 (ip), vehicle: saline with Tween-80 97 % of control | dose: 8.0 mg/kg/injection, schedule: Q04DX003 (ip), vehicle: water 107 % of control | dose: 12.5 mg/kg/injection, schedule: Q01DX009 (ip), vehicle: saline with Tween-80 103 % of control | dose: 12.5 mg/kg/injection, schedule: Q04DX003 (ip), vehicle: saline with Tween-80 100 % of control | dose: 16.0 mg/kg/injection, schedule: Q04DX003 (ip), vehicle: water 95 % of control and 103 % of control | dose: 25.0 mg/kg/injection, schedule: Q01DX009 (ip), vehicle: saline with Tween-80 112 % of control | dose: 25.0 mg/kg/injection, schedule: Q04DX003 (ip), vehicle: saline with Tween-80 100 % of control | dose: 32.0 mg/kg/injection, schedule: Q04DX003 (ip), vehicle: water 100 % of control | dose: 50.0 mg/kg/injection, schedule: Q01DX009 (ip), vehicle: saline with Tween-80 111 % of control | dose: 50.0 mg/kg/injection, schedule: Q04DX003 (ip), vehicle: saline with Tween-80 100 % of control | dose: 64.0 mg/kg/injection, schedule: Q04DX003 (ip), vehicle: water 104 % of control | [1] 100 % of control | dose: 125.0 micrograms/kg/injection, schedule: Q04DX003 (ip), vehicle: water 104 % of control | dose: 250.0 micrograms/kg/injection, schedule: Q04DX003 (ip), vehicle: water 104 % of control | dose: 500.0 micrograms/kg/injection, schedule: Q04DX003 (ip), vehicle: water 105 % of control | dose: 1000.0 micrograms/kg/injection, schedule: Q04DX003 (ip), vehicle: water 104 % of control | dose: 2000.0 micrograms/kg/injection, schedule: Q04DX003 (ip), vehicle: water 101 % of control

CCN1c2ccccc2Sc2ccccc21
inactive: dose: 50.0 mg/kg/injection, schedule: Q01DX001 (ip), vehicle: carboxymethylcellulose (CMC) 98 % of control | dose: 100.0 mg/kg/injection, schedule: Q01DX001 (ip), vehicle: carboxymethylcellulose (CMC) 98 % of control | [1] 92 % of control | dose: 200.0 mg/kg/injection, schedule: Q01DX001 (ip), vehicle: carboxymethylcellulose (CMC) 102 % of control | dose: 200.0 mg/kg/injection, schedule: Q04DX003 (ip), vehicle: saline with Tween-80 97 % of control | dose: 400.0 mg/kg/injection, schedule: Q01DX001 (ip), vehicle: carboxymethylcellulose (CMC) 98 % of control | dose: 400.0 mg/kg/injection, schedule: Q04DX003 (ip), vehicle: saline with Tween-80 100 % of control

CC(C)C(=O)/C=C/c1ccc(Cl)cc1
inactive: dose: 100.0 mg/kg/injection, schedule: Q04DX002 (ip), vehicle: gum acacia 95 % of control | dose: 200.0 mg/kg/injection, schedule: Q04DX002 (ip), vehicle: gum acacia 92 % of control | dose: 400.0 mg/kg/injection, schedule: Q04DX002 (ip), vehicle: gum acacia 92 % of control
